For experiment [1], the target named is T1, Recombinant STAT3 protein (STAT3(G127-I722)) (Homo sapiens, UniProt P40763).
T1 construct: STAT3(G127-I722)
The experiment in a line: STAT3 Fluorescence Polarization (FP) Assay. In kind it is binding. Conditions: STAT3(G127-I722) 25 nM, probe 5-FAM-GpYLPQTV-NH2 2 nM, 45-minute incubation. The gist of the method:
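Serially diluted compounds (1% DMSO) were mixed with 2 nM fluorescent phosphotyrosine peptide and 25 nM STAT3 construct G127-I722, pH 7.4, incubated 45 min at room temperature. IC50 values from fitted polarization curves are reported as categories A (≤100 nM), B, C, D (>10 μM).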

Experiment [2] concerns the target T2, Recombinant STAT6 protein (STAT6(W123-T658)) (Homo sapiens, UniProt P42226).
T2 construct: STAT6(W123-T658)
T2 sequence (P42226 123-658): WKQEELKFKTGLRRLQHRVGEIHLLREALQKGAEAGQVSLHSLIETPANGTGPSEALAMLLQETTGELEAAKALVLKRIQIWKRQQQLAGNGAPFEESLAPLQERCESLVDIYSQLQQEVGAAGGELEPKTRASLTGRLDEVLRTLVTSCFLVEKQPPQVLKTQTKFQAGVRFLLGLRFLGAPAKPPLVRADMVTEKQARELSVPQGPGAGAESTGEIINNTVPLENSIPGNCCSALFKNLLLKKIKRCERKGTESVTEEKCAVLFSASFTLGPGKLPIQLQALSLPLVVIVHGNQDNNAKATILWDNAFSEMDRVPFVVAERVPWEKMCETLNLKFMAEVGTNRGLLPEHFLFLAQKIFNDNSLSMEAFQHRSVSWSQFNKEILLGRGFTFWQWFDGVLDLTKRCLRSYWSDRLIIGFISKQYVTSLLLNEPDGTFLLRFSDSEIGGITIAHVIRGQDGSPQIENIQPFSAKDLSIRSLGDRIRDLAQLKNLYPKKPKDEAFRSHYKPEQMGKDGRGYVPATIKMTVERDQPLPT
Description: STAT6 Fluorescence Polarization (FP) Assay. Particulars: STAT6(W123-T658) 250 nM, probe 5-FAM-ApYKPFQDLI-NH2 2 nM, 45-minute incubation. It counts as binding. The gist of the method:
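Competitive displacement of a fluorescent phosphotyrosine peptide (2 nM) from recombinant STAT6 W123-T658 (250 nM), 45 min at room temperature in 10 mM HEPES pH 7.4, 50 mM NaCl, 2 mM DTT. mP fitted against log compound for IC50, grouped A (≤300 nM) to D (>30 μM).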

Structures are written as SMILES. pIC50: −log10 of the molar value.

T1 sequence (P40763 127-722, species assumed): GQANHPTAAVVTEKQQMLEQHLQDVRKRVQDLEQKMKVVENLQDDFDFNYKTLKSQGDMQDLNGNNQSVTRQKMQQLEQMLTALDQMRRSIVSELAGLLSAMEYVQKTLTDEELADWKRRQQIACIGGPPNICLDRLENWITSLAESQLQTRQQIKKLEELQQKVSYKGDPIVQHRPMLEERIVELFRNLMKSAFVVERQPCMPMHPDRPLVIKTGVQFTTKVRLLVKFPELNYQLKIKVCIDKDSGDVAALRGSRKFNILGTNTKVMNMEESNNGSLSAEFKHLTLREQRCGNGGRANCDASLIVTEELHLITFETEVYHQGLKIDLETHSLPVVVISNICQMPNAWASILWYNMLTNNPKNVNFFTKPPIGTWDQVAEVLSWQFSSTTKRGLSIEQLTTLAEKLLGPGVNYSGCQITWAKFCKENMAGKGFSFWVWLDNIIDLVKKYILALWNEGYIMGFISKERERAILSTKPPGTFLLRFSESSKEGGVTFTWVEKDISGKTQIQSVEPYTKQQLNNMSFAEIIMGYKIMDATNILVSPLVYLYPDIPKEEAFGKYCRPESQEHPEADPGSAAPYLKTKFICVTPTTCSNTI

Take `O=C(N[C@H]1C[C@@H]2C[C@@H]2C[C@H]2CC[C@@H](C(=O)N3CC(F)(c4ccccc4)C3)N2C1=O)c1cc2cc(C(F)(F)P(=O)(O)O)ccc2s1` [Compound 64, (difluoro(2-(((3S,6S,7aS,8aR,9aR)-3-(3-fluoro-3-phenylazetidine-1-carbonyl)-5-oxodecahydro-1H-cyclopropa[d]pyrrolo[1,2-a]azocin-6-yl)carbamoyl)benzo[b]thiophen-5-yl)methyl)phosphonic acid]: the pIC50 in experiment [1] is above 7.00; in experiment [2], 5.52 to 6.52.
`O=C(N[C@H]1C[C@@H]2C[C@@H]2C[C@H]2CC[C@@H](C(=O)N3CC(c4ncccn4)C3)N2C1=O)c1cc2cc(C(F)(F)P(=O)(O)O)ccc2s1` [Compound 65, (difluoro(2-(((3S,6S,7aS,8aR,9aR)-5-oxo-3-(3-(pyrimidin-2-yl)azetidine-1-carbonyl)decahydro-1H-cyclopropa[d]pyrrolo[1,2-a]azocin-6-yl)carbamoyl)benzo[b]thiophen-5-yl)methyl)phosphonic acid]: the negative logarithm of the IC50 (pIC50) was above 7.00 in experiment [1] and 4.52 to 5.52 in experiment [2].
Regarding `O=C(N[C@H]1C[C@@H]2C[C@@H]2[C@H]2CC[C@@H](C(=O)N3CC(c4cccnc4)C3)N2C1=O)c1cc2cc(C(F)(F)P(=O)(O)O)ccc2s1` [Compound 67, (difluoro(2-(((3S,6S,7aS,8aS,8bR)-5-oxo-3-(3-(pyridin-3-yl)azetidine-1-carbonyl)decahydrocyclopropa[c]pyrrolo[1,2-a]azepin-6-yl)carbamoyl)benzo[b]thiophen-5-yl)methyl)phosphonic acid], the pIC50 in experiment [1] is above 7.00; in experiment [2], 5.52 to 6.52.
In the case of `Cc1cccc(C2CN(C(=O)[C@@H]3CC[C@@H]4C[C@@H]5C[C@@H]5C[C@H](NC(=O)c5cc6cc(C(F)(F)P(=O)(O)O)ccc6s5)C(=O)N43)C2)c1` [Compound 68, (difluoro(2-(((3S,6S,7aR,8aS,9aR)-5-oxo-3-(3-(m-tolyl)azetidine-1-carbonyl)decahydro-1H-cyclopropa[d]pyrrolo[1,2-a]azocin-6-yl)carbamoyl)benzo[b]thiophen-5-yl)methyl)phosphonic acid], the figures for the negative-log IC50 (pIC50) in experiment [1] and in experiment [2] were above 7.00 and 5.52 to 6.52, respectively.
In the same order, the values of `CS(=O)(=O)CC1CN(C(=O)[C@@H]2CC[C@@H]3C[C@@H]4C[C@@H]4C[C@H](NC(=O)c4cc5cc(C(F)(F)P(=O)(O)O)ccc5s4)C(=O)N32)C1` [Compound 69, (difluoro(2-(((3S,6S,7aR,8aS,9aR)-3-(3-((methylsulfonyl)methyl)azetidine-1-carbonyl)-5-oxodecahydro-1H-cyclopropa[d]pyrrolo[1,2-a]azocin-6-yl)carbamoyl)benzo[b]thiophen-5-yl)methyl)phosphonic acid] are above 7.00 and 4.52 to 5.52.
Consider `N#CC1(c2ccccn2)CN(C(=O)[C@@H]2CC[C@@H]3C[C@@H]4C[C@@H]4C[C@H](NC(=O)c4cc5cc(C(F)(F)P(=O)(O)O)ccc5s4)C(=O)N32)C1` [Compound 70, ((2-(((3S,6S,7aR,8aS,9aR)-3-(3-cyano-3-(pyridin-2-yl)azetidine-1-carbonyl)-5-oxodecahydro-1H-cyclopropa[d]pyrrolo[1,2-a]azocin-6-yl)carbamoyl)benzo[b]thiophen-5-yl)difluoromethyl)phosphonic acid], for which the pIC50 is above 7.00 in experiment [1] and 5.52 to 6.52 in experiment [2].
For the molecule `O=C(N[C@H]1C[C@H]2C[C@H]2C[C@H]2CC[C@@H](C(=O)N3CC(C(=O)N4CCOCC4)C3)N2C1=O)c1cc2cc(C(F)(F)P(=O)(O)O)ccc2s1` [Compound 71, (difluoro(2-(((3S,6S,7aR,8aS,9aR)-3-(3-(morpholine-4-carbonyl)azetidine-1-carbonyl)-5-oxodecahydro-1H-cyclopropa[d]pyrrolo[1,2-a]azocin-6-yl)carbamoyl)benzo[b]thiophen-5-yl)methyl)phosphonic acid], the pIC50 was above 7.00 in experiment [1] and 4.52 to 5.52 in experiment [2].
Turning to `CN=S(C)(=O)CC1CN(C(=O)[C@@H]2CC[C@@H]3C[C@@H]4C[C@@H]4C[C@H](NC(=O)c4cc5cc(C(F)(F)P(=O)(O)O)ccc5s4)C(=O)N32)C1` (stereo partly drawn) [Compound 72, ((2-(((3S,6S,7aR,8aS,9aR)-3-(3-((N,S-dimethylsulfonimidoyl)methyl)azetidine-1-carbonyl)-5-oxodecahydro-1H-cyclopropa[d]pyrrolo[1,2-a]azocin-6-yl)carbamoyl)benzo[b]thiophen-5-yl)difluoromethyl)phosphonic acid], the negative-log IC50 (pIC50) is above 7.00 in experiment [1] and 4.52 to 5.52 in experiment [2].
Regarding `O=C(N[C@H]1C[C@H]2C[C@H]2C[C@H]2CC[C@@H](C(=O)N3CC(CC(F)F)(c4ccccc4)C3)N2C1=O)c1cc2cc(C(F)(F)P(=O)(O)O)ccc2s1` [Compound 73, ((2-(((3S,6S,7aR,8aS,9aR)-3-(3-(2,2-difluoroethyl)-3-phenylazetidine-1-carbonyl)-5-oxodecahydro-1H-cyclopropa[d]pyrrolo[1,2-a]azocin-6-yl)carbamoyl)benzo[b]thiophen-5-yl)difluoromethyl)phosphonic acid], the results for the pIC50 in experiment [1] and in experiment [2] were above 7.00 and 4.52 to 5.52, respectively.
With `N#Cc1ccc(C2CN(C(=O)[C@@H]3CC[C@@H]4C[C@@H]5C[C@@H]5C[C@H](NC(=O)c5cc6cc(C(F)(F)P(=O)(O)O)ccc6s5)C(=O)N43)C2)cc1` [Compound 74, ((2-(((3S,6S,7aR,8aS,9aR)-3-(3-(4-cyanophenyl)azetidine-1-carbonyl)-5-oxodecahydro-1H-cyclopropa[d]pyrrolo[1,2-a]azocin-6-yl)carbamoyl)benzo[b]thiophen-5-yl)difluoromethyl)phosphonic acid], the negative-log IC50 (pIC50) in experiment [1] was above 7.00; in experiment [2], 5.52 to 6.52.
On to `COC1(c2nccn2C)CN(C(=O)[C@@H]2CC[C@@H]3C[C@@H]4C[C@@H]4C[C@H](NC(=O)c4cc5cc(C(F)(F)P(=O)(O)O)ccc5s4)C(=O)N32)C1` [Compound 75, (difluoro(2-(((3S,6S,7aR,8aS,9aR)-3-(3-methoxy-3-(1-methyl-1H-imidazol-2-yl)azetidine-1-carbonyl)-5-oxodecahydro-1H-cyclopropa[d]pyrrolo[1,2-a]azocin-6-yl)carbamoyl)benzo[b]thiophen-5-yl)methyl)phosphonic acid], for which the results for the pIC50 in experiment [1] and in experiment [2] were above 7.00 and 4.52 to 5.52, respectively.
For the molecule `Cn1cnnc1C1CN(C(=O)[C@@H]2CC[C@@H]3C[C@@H]4C[C@@H]4C[C@H](NC(=O)c4cc5cc(C(F)(F)P(=O)(O)O)ccc5s4)C(=O)N32)C1` [Compound 76, (difluoro(2-(((3S,6S,7aR,8aS,9aR)-3-(3-(4-methyl-4H-1,2,4-triazol-3-yl)azetidine-1-carbonyl)-5-oxodecahydro-1H-cyclopropa[d]pyrrolo[1,2-a]azocin-6-yl)carbamoyl)benzo[b]thiophen-5-yl)methyl)phosphonic acid], the pIC50 in experiment [1] is above 7.00; in experiment [2], 4.52 to 5.52.
As for `O=C(N[C@H]1C[C@H]2C[C@H]2C[C@H]2CC[C@@H](C(=O)N3CC(c4[nH]nc5c4CCC5)C3)N2C1=O)c1cc2cc(C(F)(F)P(=O)(O)O)ccc2s1` [Compound 77, (difluoro(2-(((3S,6S,7aR,8aS,9aR)-5-oxo-3-(3-(2,4,5,6-tetrahydrocyclopenta[c]pyrazol-3-yl)azetidine-1-carbonyl)decahydro-1H-cyclopropa[d]pyrrolo[1,2-a]azocin-6-yl)carbamoyl)benzo[b]thiophen-5-yl)methyl)phosphonic acid], the pIC50 in experiment [1] was above 7.00; in experiment [2] it was 4.52 to 5.52.
`O=C(N[C@H]1C[C@H]2C[C@H]2C[C@H]2CC[C@@H](C(=O)N3CC(c4nc5ccccc5[nH]4)C3)N2C1=O)c1cc2cc(C(F)(F)P(=O)(O)O)ccc2s1` [Compound 78, ((2-(((3S,6S,7aR,8aS,9aR)-3-(3-(1H-benzo[d]imidazol-2-yl)azetidine-1-carbonyl)-5-oxodecahydro-1H-cyclopropa[d]pyrrolo[1,2-a]azocin-6-yl)carbamoyl)benzo[b]thiophen-5-yl)difluoromethyl)phosphonic acid]: the pIC50 in experiment [1] is above 7.00; in experiment [2], 4.52 to 5.52.
On to `CC(C)C1(c2ccccc2)CN(C(=O)[C@@H]2CC[C@@H]3C[C@@H]4C[C@@H]4C[C@H](NC(=O)c4cc5cc(C(F)(F)P(=O)(O)O)ccc5s4)C(=O)N32)C1` [Compound 79, (difluoro(2-(((3S,6S,7aR,8aS,9aR)-3-(3-isopropyl-3-phenylazetidine-1-carbonyl)-5-oxodecahydro-1H-cyclopropa[d]pyrrolo[1,2-a]azocin-6-yl)carbamoyl)benzo[b]thiophen-5-yl)methyl)phosphonic acid], for which the pIC50 in experiment [1] was above 7.00; in experiment [2], 4.52 to 5.52.

The record behind these values is patent US20250215030A1, “STAT MODULATORS AND USES THEREOF” (Recludix Pharma, Inc., priority 2022, published 2025).
